Measured values from patent publication US10231954B2, “Neurodegenerative therapies” (LYTIX BIOPHARMA AS, priority 2014, dated 2019).
Read-outs that look alike come from different tables or passages of the source.

How the values were obtained:
Assay type in all cases: biochemical
NUAK1 = target: T1, NUAK1 (Homo sapiens, UniProt O60285); test: Kinase profiling NUAK1; settings: for remaining activity at 100 µM: read-out: residual kinase activity, NUAK1
T1 sequence (O60285 1-661): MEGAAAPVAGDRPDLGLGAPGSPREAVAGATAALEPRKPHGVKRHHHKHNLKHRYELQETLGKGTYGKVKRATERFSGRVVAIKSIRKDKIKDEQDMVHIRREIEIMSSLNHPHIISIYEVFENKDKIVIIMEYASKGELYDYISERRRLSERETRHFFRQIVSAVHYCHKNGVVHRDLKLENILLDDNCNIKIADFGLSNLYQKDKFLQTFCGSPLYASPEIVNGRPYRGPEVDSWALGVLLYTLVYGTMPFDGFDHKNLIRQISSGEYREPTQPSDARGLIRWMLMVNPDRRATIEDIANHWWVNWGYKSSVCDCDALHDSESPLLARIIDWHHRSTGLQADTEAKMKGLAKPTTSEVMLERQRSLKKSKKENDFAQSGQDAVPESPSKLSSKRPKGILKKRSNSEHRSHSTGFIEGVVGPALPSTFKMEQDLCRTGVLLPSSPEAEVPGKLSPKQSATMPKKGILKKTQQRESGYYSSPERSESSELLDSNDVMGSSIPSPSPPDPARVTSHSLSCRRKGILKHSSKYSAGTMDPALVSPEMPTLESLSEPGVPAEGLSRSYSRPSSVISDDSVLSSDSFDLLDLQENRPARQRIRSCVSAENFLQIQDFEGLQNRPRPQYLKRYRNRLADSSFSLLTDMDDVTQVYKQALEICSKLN
Source text: (§1) Any value less that 25 is considered to be highly significant inhibition.

HIPK1 = HIPK1 (Homo sapiens, UniProt Q86Z02); test: Kinase profiling HIPK1; settings: for remaining activity at 100 µM: read-out: residual kinase activity, HIPK1
Chain of HIPK1 (Q86Z02 whole entry, species assumed): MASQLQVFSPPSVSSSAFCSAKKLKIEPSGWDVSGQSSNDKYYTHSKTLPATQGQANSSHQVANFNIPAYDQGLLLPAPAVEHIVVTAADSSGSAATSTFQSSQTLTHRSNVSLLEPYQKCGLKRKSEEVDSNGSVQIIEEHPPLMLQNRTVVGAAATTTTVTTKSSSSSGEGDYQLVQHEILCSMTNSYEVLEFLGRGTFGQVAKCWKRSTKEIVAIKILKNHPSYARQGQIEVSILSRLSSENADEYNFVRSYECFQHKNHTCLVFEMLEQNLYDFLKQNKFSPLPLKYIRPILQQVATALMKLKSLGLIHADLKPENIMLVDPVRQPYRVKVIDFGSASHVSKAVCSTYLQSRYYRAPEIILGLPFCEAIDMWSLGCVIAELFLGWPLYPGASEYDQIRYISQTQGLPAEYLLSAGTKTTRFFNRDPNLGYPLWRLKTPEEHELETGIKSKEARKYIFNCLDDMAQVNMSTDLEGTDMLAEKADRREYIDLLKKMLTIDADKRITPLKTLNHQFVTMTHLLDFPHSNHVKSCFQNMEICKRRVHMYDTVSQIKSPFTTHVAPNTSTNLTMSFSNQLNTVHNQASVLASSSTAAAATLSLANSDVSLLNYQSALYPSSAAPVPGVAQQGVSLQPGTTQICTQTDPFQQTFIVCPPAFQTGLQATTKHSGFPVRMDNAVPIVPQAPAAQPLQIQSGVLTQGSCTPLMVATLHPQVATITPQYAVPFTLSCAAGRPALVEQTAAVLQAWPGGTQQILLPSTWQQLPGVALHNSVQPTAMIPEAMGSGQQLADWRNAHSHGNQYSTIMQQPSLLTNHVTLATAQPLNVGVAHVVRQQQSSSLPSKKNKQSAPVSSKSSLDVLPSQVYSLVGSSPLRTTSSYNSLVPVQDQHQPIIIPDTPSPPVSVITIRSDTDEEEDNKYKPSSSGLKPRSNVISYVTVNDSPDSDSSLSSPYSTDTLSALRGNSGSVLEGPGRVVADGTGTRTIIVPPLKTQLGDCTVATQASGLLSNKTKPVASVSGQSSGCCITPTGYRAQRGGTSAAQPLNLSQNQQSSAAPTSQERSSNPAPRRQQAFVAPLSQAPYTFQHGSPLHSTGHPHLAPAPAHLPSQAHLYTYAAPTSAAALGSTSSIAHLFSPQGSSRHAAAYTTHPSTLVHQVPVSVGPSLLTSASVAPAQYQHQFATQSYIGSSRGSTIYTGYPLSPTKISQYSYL
Source text: as §1

ASK1 = target: T2, ASK1 (Homo sapiens, UniProt Q99683); test: Kinase profiling ASK1; settings: for remaining activity at 100 µM: read-out: residual kinase activity, ASK1
T2 sequence (Q99683 1-1374): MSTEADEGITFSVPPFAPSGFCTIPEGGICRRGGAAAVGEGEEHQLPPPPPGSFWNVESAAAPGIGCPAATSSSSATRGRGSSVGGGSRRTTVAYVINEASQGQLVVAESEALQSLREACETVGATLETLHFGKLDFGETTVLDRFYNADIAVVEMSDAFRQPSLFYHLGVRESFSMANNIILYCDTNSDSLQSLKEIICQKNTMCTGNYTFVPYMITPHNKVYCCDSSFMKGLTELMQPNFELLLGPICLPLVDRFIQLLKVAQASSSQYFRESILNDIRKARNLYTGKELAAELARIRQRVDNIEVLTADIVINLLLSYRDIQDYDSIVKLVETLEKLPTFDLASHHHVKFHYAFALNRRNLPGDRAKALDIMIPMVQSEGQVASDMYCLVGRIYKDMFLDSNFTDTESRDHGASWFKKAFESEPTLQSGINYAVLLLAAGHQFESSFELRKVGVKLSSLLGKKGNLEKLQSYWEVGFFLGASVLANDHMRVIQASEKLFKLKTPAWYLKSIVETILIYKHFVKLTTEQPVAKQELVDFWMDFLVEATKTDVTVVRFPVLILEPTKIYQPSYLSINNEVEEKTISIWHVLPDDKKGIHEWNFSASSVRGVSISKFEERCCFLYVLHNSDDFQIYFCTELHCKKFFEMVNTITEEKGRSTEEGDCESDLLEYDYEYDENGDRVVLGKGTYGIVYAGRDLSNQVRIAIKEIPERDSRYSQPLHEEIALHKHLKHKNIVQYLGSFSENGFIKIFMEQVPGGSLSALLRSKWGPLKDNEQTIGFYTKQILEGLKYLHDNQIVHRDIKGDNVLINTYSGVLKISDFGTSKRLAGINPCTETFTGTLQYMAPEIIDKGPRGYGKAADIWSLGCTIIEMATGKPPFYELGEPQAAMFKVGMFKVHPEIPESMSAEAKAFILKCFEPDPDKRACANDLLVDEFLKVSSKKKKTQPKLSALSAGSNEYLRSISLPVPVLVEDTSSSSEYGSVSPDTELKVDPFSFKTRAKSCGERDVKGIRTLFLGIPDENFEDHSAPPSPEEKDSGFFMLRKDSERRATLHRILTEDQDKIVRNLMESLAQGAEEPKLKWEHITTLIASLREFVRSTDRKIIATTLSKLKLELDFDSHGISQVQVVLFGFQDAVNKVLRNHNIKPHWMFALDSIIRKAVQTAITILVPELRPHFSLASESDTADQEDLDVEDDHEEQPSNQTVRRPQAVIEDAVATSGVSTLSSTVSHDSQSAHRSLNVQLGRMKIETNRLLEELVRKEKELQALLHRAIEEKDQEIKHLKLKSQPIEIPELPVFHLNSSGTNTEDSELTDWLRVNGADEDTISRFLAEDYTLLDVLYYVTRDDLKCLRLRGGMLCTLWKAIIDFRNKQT
Source text: as §1

EPH-B3 = target: T3, EPH-B3 (Homo sapiens, UniProt P54753); test: Kinase profiling EPH-B3; settings: for remaining activity at 100 µM: read-out: residual kinase activity, EPH-B3
T3 sequence (P54753 34-998): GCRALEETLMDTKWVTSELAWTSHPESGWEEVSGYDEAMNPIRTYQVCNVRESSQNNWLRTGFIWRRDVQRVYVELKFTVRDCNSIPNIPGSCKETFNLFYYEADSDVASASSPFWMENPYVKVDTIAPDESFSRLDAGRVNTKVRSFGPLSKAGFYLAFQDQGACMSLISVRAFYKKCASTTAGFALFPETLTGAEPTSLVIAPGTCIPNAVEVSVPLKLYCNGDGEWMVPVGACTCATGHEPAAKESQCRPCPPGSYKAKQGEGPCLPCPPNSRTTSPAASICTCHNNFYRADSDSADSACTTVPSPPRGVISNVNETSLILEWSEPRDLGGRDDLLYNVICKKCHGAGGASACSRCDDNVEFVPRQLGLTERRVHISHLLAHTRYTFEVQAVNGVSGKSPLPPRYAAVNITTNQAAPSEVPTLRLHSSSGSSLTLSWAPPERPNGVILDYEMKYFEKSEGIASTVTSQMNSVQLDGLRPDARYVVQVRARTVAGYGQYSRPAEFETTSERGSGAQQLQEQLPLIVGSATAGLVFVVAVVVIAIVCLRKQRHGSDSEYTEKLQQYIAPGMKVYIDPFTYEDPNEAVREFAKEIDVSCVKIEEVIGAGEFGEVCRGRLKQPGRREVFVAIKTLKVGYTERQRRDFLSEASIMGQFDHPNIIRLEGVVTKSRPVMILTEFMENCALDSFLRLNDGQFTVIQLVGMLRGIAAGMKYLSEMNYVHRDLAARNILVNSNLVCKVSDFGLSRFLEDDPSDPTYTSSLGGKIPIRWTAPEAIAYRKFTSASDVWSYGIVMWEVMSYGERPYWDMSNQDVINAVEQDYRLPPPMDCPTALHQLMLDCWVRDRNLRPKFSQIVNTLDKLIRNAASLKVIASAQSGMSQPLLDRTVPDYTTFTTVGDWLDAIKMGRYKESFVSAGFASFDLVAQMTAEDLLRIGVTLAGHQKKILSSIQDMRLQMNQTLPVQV
Source text: as §1

[1] = 100 micromolar inhibitor concentration, 100 is no change
[2] = 100 micromolar inhibitor, 100 = no change

Row | Compound | remaining activity at 100 µM (NUAK1; [1]) [%] | remaining activity at 100 µM (HIPK1; [1]) [%] | remaining activity at 100 µM (ASK1; [1]) [%] | remaining activity at 100 µM (EPH-B3; [1]) [%] | residual kinase activity, NUAK1 (NUAK1; [1]) | residual kinase activity, HIPK1 (HIPK1; [1]) | residual kinase activity, ASK1 (ASK1; [1]) | residual kinase activity, EPH-B3 (EPH-B3; [1]) | further results
1 | CC(=O)Nc1nc2cc(O)ccc2s1 [Compound 01-66, N-(5-hydroxybenzo[d]thiazol-2-yl)acetamide] | – | – | – | – | – | – | – | – | remaining activity at 100 µM (NUAK1): 44%; remaining activity at 100 µM (HIPK1): 97%; remaining activity at 100 µM (ASK1): 70%; remaining activity at 100 µM (EPH-B3): 83%
2 | CC(=O)Nc1nc2ccc(O)cc2s1 [Compound 01-71] | 26 | 76 | 53 | 66 | – | – | – | – | –
3 | O=C(Nc1nc2cc(O)ccc2s1)c1cccnc1 [Compound 03-33] | – | – | – | – | 68 | 41 | 51 | 108 | –
4 | O=C(Nc1nc2cc(O)ccc2s1)c1ccccn1 [Compound 03-13] | – | – | – | – | 64 | 76 | 88 | 44 | –
5 | CC(=O)Nc1nc2cc(C)ccc2s1 [Compound 03-76] | – | – | – | – | 58 | 53 | 23 | 107 | –
6 | O=C(Nc1nc2ccc(O)cc2s1)c1ccncc1 [Compound 08-42] | – | – | – | – | 57 | 44 | 37 | 88 | –
7 | O=C(Nc1nc2ccc(O)cc2s1)c1ccccn1 [Compound 03-12] | – | – | – | – | 52 | 47 | 70 | 63 | –
8 | CC(=O)Nc1cccc(NC(=O)c2nc3ccc(O)cc3s2)c1 [Compound 03-07, N-(3-acetamidophenyl)-6-hydroxybenzo[d]thiazole-2-carboxamide] | – | – | – | – | – | – | – | – | remaining activity at 100 µM (NUAK1; [2]): 37%; remaining activity at 100 µM (HIPK1; [2]): 90%; remaining activity at 100 µM (ASK1; [2]): 86%; remaining activity at 100 µM (EPH-B3; [2]): 64%
9 | O=C(Nc1nc2ccc(O)cc2s1)c1ccccc1 [Compound 03-60] | – | – | – | – | 14 | 9 | 12 | 93 | –
10 | CC(=O)Nc1nc2ccccc2s1 [Compound 03-32] | – | – | – | – | 74 | 62 | 66 | 71 | –
11 | CC(=O)Nc1nc2ccc(C#N)cc2s1 [Compound 01-94] | 46 | 37 | 18 | 72 | – | – | – | – | –
12 | O=C(Nc1nc2cc(O)ccc2s1)c1ccncc1 [Compound 03-11] | – | – | – | – | 86 | 75 | 79 | 76 | –
13 | COc1ccc2sc(NC(C)=O)nc2c1 [Compound 03-21] | 84 | 39 | 97 | 106 | – | – | – | – | –
14 | CC(=O)Nc1nc2cc(C(F)(F)F)ccc2s1 [Compound 03-73] | 74 | 74 | 83 | 114 | – | – | – | – | –
15 | CC(=O)Nc1nc2cc(F)ccc2s1 [Compound 03-77] | 66 | 40 | 54 | 113 | – | – | – | – | –
16 | CC(=O)Nc1nc2ccc(C(F)(F)F)cc2s1 [Compound 01-90] | 66 | 48 | 35 | 89 | – | – | – | – | –
17 | O=C(Nc1nc2ccc(O)cc2s1)c1cccnc1 [Compound 08-44] | – | – | – | – | 39 | 43 | 18 | 65 | –
